Laboratory results published in ChEMBL document CHEMBL5550211 (J Med Chem, 2024).

How the values were obtained:
[1] = molecular target: T1, Serine/threonine-protein kinase B-raf (Homo sapiens, UniProt P15056, V600E); test: Inhibition of 6-His tagged BRAF V600E mutant (445 to 723 residues) (unknown origin)
[2] = molecular target: T1, Serine/threonine-protein kinase B-raf; test: Inhibition of BRAF V600E mutant in human A-375 cells assessed as reduction in ERK phosphorylation; type: cell-based
[3] = Apparent permeability across apical to basolateral side in LLC-PK1 cells; type: ADME, cell-based, Sus scrofa; conditions: pig
[4] = Substrate activity at P-gp in LLC-PK1 cells assessed as efflux ratio of apparent permeability from basolateral to apical side over apical to basolateral side; type: ADME, cell-based, Sus scrofa; conditions: pig
[5] = Substrate activity at BCRP in LLC-PK1 cells assessed as efflux ratio of apparent permeability from basolateral to apical side over apical to basolateral side; type: ADME, cell-based, Sus scrofa; conditions: pig
[6] = Dissociation constant, pKa of the compound; type: physicochemical

T1 sequence (P15056 2-766 V600E limits assumed): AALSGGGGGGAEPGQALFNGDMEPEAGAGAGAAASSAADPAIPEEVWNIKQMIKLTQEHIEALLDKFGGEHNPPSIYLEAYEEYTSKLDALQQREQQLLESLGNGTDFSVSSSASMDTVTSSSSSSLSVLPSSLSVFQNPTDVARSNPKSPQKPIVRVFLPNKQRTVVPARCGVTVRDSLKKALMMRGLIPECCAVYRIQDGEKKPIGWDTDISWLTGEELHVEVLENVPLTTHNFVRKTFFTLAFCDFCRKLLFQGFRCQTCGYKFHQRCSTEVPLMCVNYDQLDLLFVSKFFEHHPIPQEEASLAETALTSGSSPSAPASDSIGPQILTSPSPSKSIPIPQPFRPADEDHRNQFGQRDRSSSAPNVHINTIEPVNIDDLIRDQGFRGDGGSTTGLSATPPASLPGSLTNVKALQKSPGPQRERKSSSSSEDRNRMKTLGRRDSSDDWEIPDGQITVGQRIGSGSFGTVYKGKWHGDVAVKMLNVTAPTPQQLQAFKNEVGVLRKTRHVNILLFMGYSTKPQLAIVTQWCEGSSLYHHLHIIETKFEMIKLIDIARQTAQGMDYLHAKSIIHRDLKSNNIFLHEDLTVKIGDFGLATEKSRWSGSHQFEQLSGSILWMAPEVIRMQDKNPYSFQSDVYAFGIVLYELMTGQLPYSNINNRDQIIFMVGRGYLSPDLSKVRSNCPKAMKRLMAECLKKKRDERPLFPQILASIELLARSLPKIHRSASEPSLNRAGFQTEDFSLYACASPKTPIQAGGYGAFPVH

Structure (SMILES) | IC50 [1] | IC50 [2] | Papp A→B [3] | Ratio [4] | Ratio [5] | pKa [6]
CCC(C)S(=O)(=O)Nc1ccc(F)c(Nc2ccc3ncn(C)c(=O)c3c2C)c1Cl (stereo not given) | 77.4 nM | 113 nM | 27 ×10⁻⁶ cm/s | 1.2 | 0.8 | 
CC(C)(C)c1nc(-c2cccc(NS(=O)(=O)c3c(F)cccc3F)c2F)c(-c2ccnc(N)n2)s1 [DABRAFENIB] |  |  | 29 ×10⁻⁶ cm/s | 10.1 | 11.7 | 
Cc1c(Nc2c(F)ccc(NS(=O)(=O)CC3CC3)c2Cl)ccc2ncn(C)c(=O)c12 | 46.1 nM | 93.6 nM | 29 ×10⁻⁶ cm/s | 1.5 | 1.1 | 
CCCS(=O)(=O)Nc1ccc(F)c(Nc2ccc3ncn(CC)c(=O)c3c2C)c1Cl | 3.61 nM | 27 nM | 30 ×10⁻⁶ cm/s | 0.9 | 0.9 | 
Cc1c(Nc2c(F)ccc(NS(=O)(=O)C3CC3)c2Cl)ccc2ncn(C)c(=O)c12 |  |  | 22 ×10⁻⁶ cm/s |  |  | 
CCCS(=O)(=O)Nc1ccc(F)c(Nc2ccc3ncn(C(C)C)c(=O)c3c2C)c1Cl | 20 nM | 187 nM | 20 ×10⁻⁶ cm/s | 1.4 | 1.5 | 
CCCS(=O)(=O)Nc1ccc(F)c(Nc2ccc3ncn(C4CC4)c(=O)c3c2C)c1Cl | 11.7 nM | 61.5 nM | 25 ×10⁻⁶ cm/s | 1.6 | 1.6 | 
CCCS(=O)(=O)Nc1ccc(F)c(Nc2ccc3ncn(CC4CC4)c(=O)c3c2C)c1Cl | 17.5 nM | 285 nM | 21 ×10⁻⁶ cm/s | 1.1 | 1.6 | 
COC(=O)N[C@@H](C)CNc1nccc(-c2cn(C(C)C)nc2-c2cc(Cl)cc(NS(C)(=O)=O)c2F)n1 [ENCORAFENIB] |  |  | 11 ×10⁻⁶ cm/s | 26.3 |  | 
CCCS(=O)(=O)Nc1ccc(F)c(C(=O)c2c[nH]c3ncc(-c4ccc(Cl)cc4)cc23)c1F [VEMURAFENIB] |  |  | 3 ×10⁻⁶ cm/s | 21.7 | 15.2 | 
CCS(=O)(=O)Nc1ccc(F)c(Nc2ccc3ncn(C)c(=O)c3c2C)c1Cl | 182 nM | 169 nM | 36 ×10⁻⁶ cm/s | 1.8 | 1.3 | 
Cc1c(Nc2c(F)ccc(NS(=O)(=O)CC(C)C)c2Cl)ccc2ncn(C)c(=O)c12 | 50.8 nM | 122 nM | 27 ×10⁻⁶ cm/s | 1.6 | 1.3 | 

Second part, the molecule after the results:

IC50 [1] | IC50 [2] | Papp A→B [3] | Ratio [4] | Ratio [5] | pKa [6] | Structure (SMILES)
 |  | 33 ×10⁻⁶ cm/s |  |  |  | CCCS(=O)(=O)Nc1ccc(F)c(Nc2ccc3ncn(C)c(=O)c3c2F)c1Cl
54.9 nM | 177 nM | 28 ×10⁻⁶ cm/s | 3.6 | 1.3 |  | CCCS(=O)(=O)Nc1ccc(F)c(N(C)c2ccc3ncn(C)c(=O)c3c2)c1Cl
 |  | 22 ×10⁻⁶ cm/s |  |  |  | CCCS(=O)(=O)Nc1ccc(F)c(Nc2ccc3ncn(C)c(=O)c3c2OC)c1Cl
13.8 nM | 27.3 nM | 39 ×10⁻⁶ cm/s | 4.1 | 6 |  | CCCS(=O)(=O)Nc1ccc(F)c(Nc2ccc3ncn(C)c(=O)c3c2)c1Cl
69.2 nM | 73.7 nM | 41 ×10⁻⁶ cm/s | 3.2 | 2.6 |  | CCCS(=O)(=O)Nc1ccc(F)c(N(C)c2ccc3ncn(C)c(=O)c3c2)c1F
 |  | 24 ×10⁻⁶ cm/s |  |  |  | CCCS(=O)(=O)Nc1ccc(F)c(Nc2ccc3ncn(C)c(=O)c3c2Cl)c1Cl
60.3 nM | 142 nM | 48 ×10⁻⁶ cm/s | 7.1 | 18.9 |  | CCCS(=O)(=O)Nc1ccc(Cl)c(Nc2ccc3ncn(C)c(=O)c3c2)c1F
14.5 nM | 35.5 nM | 28 ×10⁻⁶ cm/s | 1.3 | 1.2 | 7.88 | CCCS(=O)(=O)Nc1ccc(F)c(Nc2ccc3ncn(C)c(=O)c3c2C)c1Cl
197 nM | 197 nM | 19 ×10⁻⁶ cm/s | 1.5 | 1.5 |  | CCCS(=O)(=O)Nc1ccc(F)c(N(CC)c2ccc3ncn(C)c(=O)c3c2)c1F
28.4 nM | 178 nM | 37 ×10⁻⁶ cm/s | 4.1 | 3.9 |  | CCCS(=O)(=O)Nc1ccc(Cl)c(N(C)c2ccc3ncn(C)c(=O)c3c2)c1F
88 nM | 69.1 nM | 26 ×10⁻⁶ cm/s | 11.1 | 21.3 |  | CCCS(=O)(=O)Nc1ccc(F)c(Nc2ccc3ncn(C)c(=O)c3c2)c1F
 |  | 19 ×10⁻⁶ cm/s |  |  |  | CCCS(=O)(=O)Nc1ccc(F)c(Sc2ccc3ncn(C)c(=O)c3c2)c1F
 |  | 29 ×10⁻⁶ cm/s |  |  |  | CCCS(=O)(=O)Nc1ccc(F)c(Oc2ccc3ncn(C)c(=O)c3c2)c1F
